Test results from article PMC10545790.
Converted amounts (≈) assume the structure as drawn. “And” between values parts separate entries of the source, which are not always exact repeats. Equal entries are not always repeated. “Also recorded” adds a separate entry of the source. Where two headings read alike, the source gives them in different places.

Legend:
[1] = Kinetic solubility in phosphate-buffered saline, pH 7.4
[2] = Thermal and chemical stability; type: physicochemical
Source text: We also examined the thermal and chemical stability of the synthesized 2-oxabicyclo[2.2.2]octanes. As representative examples, we selected three molecules: isomeric acids 47, 54, and amine 52. All 2-oxabicyclo[2.2.2]octanes were crystalline solids that were stable in air. We stored them in stock at room temperature in closed vials and observed no changes according to ^1H NMR after one year. […] Treatment of the selected 2-oxabicyclo[2.2.2]octanes with aq. 1 M HCl, or aq.

[3] = Determination of pKa values (potentiometric titration); type: physicochemical; conditions: methanol-water (1:4) solution of NaCl; titration method; potentiometric acid-base titration at 25 °C in methanol-water (1:4), 150 mM NaCl; read-out: pKa (exp.)
Experimental: Data is obtained by the titration method. Para-methyl benzoic acid (83) is used as a reference. TEXT PRINTED IN THE PICTURE: 83: pKa (exp.): 4.5 ± 0.1 | 84: pKa (exp.): 5.6 ± 0.1 | 47: pKa (exp.): 4.4 ± 0.1 | 54: pKa (exp.): 4.1 ± 0.1 […]
Determination of pKa values
The tendency of a compound to donate proton is measured as its acid ionization constant (dissociation constant), or Ka. A more practical scale of representing acidity is pKa which is the negative logarithm of the Ka (pKa = -log Ka). pKa of a test article is determined by pH-metric method based on potentiometric acid-base titration at 25 °C. The test compounds are dissolved in acidified methanol-water (1:4) solution of NaCl (150 mM, pH 2) and slowly titrated with 0.3 M sodium hydroxide methanol-water (1:4) solution, while recording pH of the solution as a function of NaOH volume used during the titration (construction of the titration curve). Titration of acidified NaCl solution in absence of any compounds is used for blank plotting.5-8 Buffering capacity is calculated in each point of titration curve as the ratio of the NaOH flow (constant) to the pH rise velocity. The pKa value is determined from resulting plot of buffering capacity versus pH as the maximum of buffering capacity. pH-metric method allows to measure pKas in the range of approximately between 2 and 12. […]
meter, pHi®510 (Beckman Coulter, Canada; Cat# A58734). Data analysis was done using GraphPad […]
Sodium hydroxide (Enamine, Ukraine; CAS # 1310-73-2)
Sodium chloride BioXtra, ≥99.5% (AT) (Sigma-Aldrich, USA; Cat # S7653)
Hydrochloric acid (Enamine, Ukraine; CAS # 7647-01-0)
Disposable pipette tips (Eppendorf, German; Matrix and Finntip, Thermo, USA) Polypropylene graduated conical tubes, 50 mL (Kartell, Italy; Cat. # 84002) Polypropylene syringe (10 mL) with tubing (Hemoplast, Ukraine) […]
pH-meter, pHi®510 (Beckman Coulter, Canada; Cat# A58734)
Multichannel Electronic Pipettes 5-50 µL, 10-1000 µL (Thermo, USA)
Magnetic stirrer standard unit (IKA, USA)
Syringe Driver Mdl 100 (KDScientific, USA)

physchem = conditions: pH 7.4, logD (7.4): experimental distribution coefficient in n-octanol/phosphate-buffered saline
human liver microsomes = experiment: Metabolic stability in human liver microsomes; conditions: human liver microsomes
[4] = Metabolic stability in human liver microsomes; conditions: both, human, liver microsomes (pooled)
ABL1 kinase = ABL1 kinase (Homo sapiens, UniProt P00519); conditions: for Luminescence, Raw Data (LUM): ADP-Glo
ABL1 kinase, sequence (P00519 whole entry): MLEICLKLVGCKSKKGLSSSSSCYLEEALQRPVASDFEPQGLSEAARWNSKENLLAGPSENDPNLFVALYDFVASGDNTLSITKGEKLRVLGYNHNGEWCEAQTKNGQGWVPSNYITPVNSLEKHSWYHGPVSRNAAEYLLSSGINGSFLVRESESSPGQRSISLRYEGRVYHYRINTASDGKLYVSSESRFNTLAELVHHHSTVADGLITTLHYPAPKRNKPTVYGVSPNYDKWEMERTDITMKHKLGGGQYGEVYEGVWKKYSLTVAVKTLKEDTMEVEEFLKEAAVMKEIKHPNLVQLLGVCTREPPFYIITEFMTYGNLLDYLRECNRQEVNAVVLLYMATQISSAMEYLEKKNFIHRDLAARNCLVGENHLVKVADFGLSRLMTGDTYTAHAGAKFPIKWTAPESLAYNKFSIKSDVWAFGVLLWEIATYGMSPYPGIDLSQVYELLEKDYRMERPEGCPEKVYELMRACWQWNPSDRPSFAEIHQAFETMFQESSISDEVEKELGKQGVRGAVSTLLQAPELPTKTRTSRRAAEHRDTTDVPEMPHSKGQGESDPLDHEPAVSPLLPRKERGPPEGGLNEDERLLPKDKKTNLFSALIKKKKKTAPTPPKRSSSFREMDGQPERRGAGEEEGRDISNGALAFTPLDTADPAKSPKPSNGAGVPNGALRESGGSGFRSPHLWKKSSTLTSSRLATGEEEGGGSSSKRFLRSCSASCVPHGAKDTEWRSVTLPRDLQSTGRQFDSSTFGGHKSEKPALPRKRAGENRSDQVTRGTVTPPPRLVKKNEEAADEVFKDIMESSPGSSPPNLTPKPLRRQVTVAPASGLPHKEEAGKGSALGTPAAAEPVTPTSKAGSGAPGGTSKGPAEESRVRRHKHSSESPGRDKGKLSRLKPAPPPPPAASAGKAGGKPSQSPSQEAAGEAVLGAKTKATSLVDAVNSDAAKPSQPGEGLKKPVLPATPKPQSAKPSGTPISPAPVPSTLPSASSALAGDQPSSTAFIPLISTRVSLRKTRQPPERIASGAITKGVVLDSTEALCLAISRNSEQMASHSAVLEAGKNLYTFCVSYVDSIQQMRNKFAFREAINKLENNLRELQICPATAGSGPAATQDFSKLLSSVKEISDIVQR

## Cc1nccn1CC1CCc2c(c3ccccc3n2C)C1=O (stereo not shown) [Ondansetron, reference compound]
[1]; pH 7.4
  solubility kinetic at 2 h: 126 µM (≈ 37 µg/mL)

## CC12CCC(C(=O)O)(CC1)CO2 [Compound 47]
[2]; aq. 1 M HCl, room temperature, 1 h
  chemical stability in acid: no decomposition
[2]; aq. 1 M NaOH, room temperature, 1 h
  chemical stability in base: no decomposition
[2]; heating at 100 °C for five minutes
  thermal stability: remained stable
[2]; in air, room temperature, closed vials, one year, 1H NMR
  stability on storage: no changes
[3]
  pKa: 4.4

## Cc1ccc(NC(=O)C23CCC(CN4CCN(C)CC4)(CC2)CC3)cc1Nc1nccc(-c2cccnc2)n1 [Compound 86]
physchem
  logD: 2.7
[1]; 25 °C, pH 7.4, aqueous buffer, kinetic from dmso stock
  solubility kinetic at 2 h: 113 µM (≈ 59.4 µg/mL)
Human liver microsomes
  CLint: 16
Human liver microsomes; 2 μM compound, NADPH, 37 °C
  t1/2: half-time of a metabolic decomposition: ~1.785 h
[4]; pH 7.4
  k el at 2 µM: ~0.0001 s⁻¹
  microsomal CLint at 2 µM: 16 µL/min/mg
[4]; pH 7.4, % Remaining without cofactor, Mean of 2, human liver microsomes, NADPH-cofactor system substituted with phosphate buffer
  remaining at 40 min, 2 µM: 106%
[4]; pH 7.4, % Remaining, Mean of 2, human liver microsomes with NADPH, 7 min
  remaining at 7 min, 2 µM: 100%
[4]; pH 7.4, % Remaining, Mean of 2, human liver microsomes with NADPH, 15 min
  remaining at 0.25 h, 2 µM: 96%
[4]; pH 7.4, % Remaining, Mean of 2, human liver microsomes with NADPH, 25 min
  remaining at 25 min, 2 µM: 81%
[4]; pH 7.4, % Remaining, Mean of 2, human liver microsomes with NADPH
  remaining at 40 min, 2 µM: 81%
[4]; pH 7.4, t1/2: half-time of a metabolic decomposition, human liver microsomes, 2 μM compound, NADPH, 37 °C
  half-life at 2 µM: 1.78 h
ABL1 kinase; ADP-Glo Kinase Assay, 12 concentration points
  inhibitory effect on the catalytic activity of ABL1 kinase (in words): did not observe any significant inhibitory effect; also recorded: inactive
ABL1 kinase; 1st run, plate ABL1_CpdsTitr_Read1, single wells, compound 15 nM
  Luminescence, Raw Data (LUM): 2281 and 2169
ABL1 kinase; 1st run, plate ABL1_CpdsTitr_Read1, single wells, compound 29 nM
  Luminescence, Raw Data (LUM): 2495 and 2464
ABL1 kinase; 1st run, plate ABL1_CpdsTitr_Read1, single wells, compound 59 nM
  Luminescence, Raw Data (LUM): 2134 and 2384
ABL1 kinase; 1st run, plate ABL1_CpdsTitr_Read1, single wells, compound 117 nM
  Luminescence, Raw Data (LUM): 2291 and 2227
ABL1 kinase; 1st run, plate ABL1_CpdsTitr_Read1, single wells, compound 234 nM
  Luminescence, Raw Data (LUM): 1059 and 1099
ABL1 kinase; 1st run, plate ABL1_CpdsTitr_Read1, single wells, compound 469 nM
  Luminescence, Raw Data (LUM): 1247 and 1531
ABL1 kinase; 1st run, plate ABL1_CpdsTitr_Read1, single wells, compound 938 nM
  Luminescence, Raw Data (LUM): 1347 and 1294
ABL1 kinase; 1st run, plate ABL1_CpdsTitr_Read1, single wells, compound 1500 nM
  Luminescence, Raw Data (LUM): 981 and 1352
ABL1 kinase; 1st run, plate ABL1_CpdsTitr_Read1, single wells, compound 1875 nM
  Luminescence, Raw Data (LUM): 1222 and 1248
ABL1 kinase; 1st run, plate ABL1_CpdsTitr_Read1, single wells, compound 3000 nM
  Luminescence, Raw Data (LUM): 1174 and 1245
ABL1 kinase; 1st run, plate ABL1_CpdsTitr_Read1, single wells, compound 3750 nM
  Luminescence, Raw Data (LUM): 1755 and 1091
ABL1 kinase; 1st run, plate ABL1_CpdsTitr_Read1, single wells, compound 7500 nM
  Luminescence, Raw Data (LUM): 1238 and 1673
ABL1 kinase; 2nd run, plate ABL1_CpdsTitr2_Read1, single wells, compound 15 nM
  Luminescence, Raw Data (LUM): 4011 and 3702 and 3072 and 2792
ABL1 kinase; 2nd run, plate ABL1_CpdsTitr2_Read1, single wells, compound 59 nM
  Luminescence, Raw Data (LUM): 6124 and 5895 and 5335 and 5300
ABL1 kinase; 2nd run, plate ABL1_CpdsTitr2_Read1, single wells, compound 117 nM
  Luminescence, Raw Data (LUM): 6960 and 7005 and 6427 and 6079
ABL1 kinase; 2nd run, plate ABL1_CpdsTitr2_Read1, single wells, compound 234 nM
  Luminescence, Raw Data (LUM): 5660 and 5387 and 5152 and 5142
ABL1 kinase; 2nd run, plate ABL1_CpdsTitr2_Read1, single wells, compound 469 nM
  Luminescence, Raw Data (LUM): 5734 and 5920 and 6125 and 5475
ABL1 kinase; 2nd run, plate ABL1_CpdsTitr2_Read1, single wells, compound 938 nM
  Luminescence, Raw Data (LUM): 6593 and 6264 and 5955 and 5731
ABL1 kinase; 2nd run, plate ABL1_CpdsTitr2_Read1, single wells, compound 1500 nM
  Luminescence, Raw Data (LUM): 5936 and 5810 and 4992 and 5316
ABL1 kinase; 2nd run, plate ABL1_CpdsTitr2_Read1, single wells, compound 1875 nM
  Luminescence, Raw Data (LUM): 6498 and 6064 and 6232 and 5788
ABL1 kinase; 2nd run, plate ABL1_CpdsTitr2_Read1, single wells, compound 3000 nM
  Luminescence, Raw Data (LUM): 4358 and 4452 and 3565 and 4254
ABL1 kinase; 2nd run, plate ABL1_CpdsTitr2_Read1, single wells, compound 3750 nM
  Luminescence, Raw Data (LUM): 5848 and 6030 and 5487 and 5693
ABL1 kinase; 2nd run, plate ABL1_CpdsTitr2_Read1, single wells, compound 7500 nM
  Luminescence, Raw Data (LUM): 5593 and 5845 and 6001 and 5417

## Cc1ccc(C(=O)O)cc1 [Compound 83, para-methyl benzoic acid, reference compound]
[3]
  pKa: 4.5
